Values joined by “and” are separate entries in the source; they are usually repeats but may differ in a detail not shown here. Equal values may be shown once. “Also recorded” adds a separate entry of the source. Read-outs that look alike come from different tables or passages of the source.
Key:
mouse T lymphocytes = experiment: T-cell proliferation assay (ionomycin plus PMA induced T-cell stimulation, tritiated thymidine uptake); type: cell-based, C57B1/6 mice; details: for immunosuppressive activity by the T-cell proliferation assay: qualitative statement
Experimental: The principle of this assay is to measure the proliferation of mouse T lymphocytes stimulated with the combination of ionomycin plus PMA. A positive sample in this assay will inhibit T-cell proliferation, as indicated by reduced tritiated thymidine uptake.
Cells were pelleted by centrifugation at 1500 rpm for 8 minutes. Contaminating red cells were removed by treating the pellet with ammonium chloride lysing buffer (GIBCO) for 2 minutes at 4° C. Cold medium was added and cells were again centrifuged at 1500 rpm for 8 minutes. T lymphocytes were then isolated by separation of the cell suspension on nylon wool columns as follows: Nylon wool columns were prepared by packing approximately 4 grams of washed and dried nylon wool into 20 ml plastic syringes. The columns were sterilized by autoclaving at 250° F. for 30 minutes. Nylon wool columns were wetted with warm (37° C.) culture medium and rinsed with the same medium. Washed spleen cells resuspended in warm medium were slowly applied to the nylon wool. The columns were then incubated in an upright position at 37° C. for 1 hour. Non-adherent T lymphocytes were eluted from the columns with warm culture medium and the cell suspensions were spun as above.
The cell suspension was immediately distributed into 96 well flat-bottom microculture plates (Costar) at 200 μl/well. […] The proliferation of T lymphocytes was assessed by measurement of tritiated thymidine incorporation. After 44 hours of culturing, the cells were pulse-labelled with 2 μCi/well of tritiated thymidine (NEN, Cambridge, Mass.). After another 4 hours of incubation, cultures were harvested on glass fiber filters using a multiple sample harvester. Radioactivity of filter discs corresponding to individual wells was measured by standard liquid scintillation counting methods (Betacounter). Mean counts per minute of replicate wells were calculated and the results expressed as percent inhibition of tritiated thymidine uptake (proliferation) as follows: [formula]

[1] = reputed; EPO Publication No. 0184162; cited from earlier work
Solubility = type: physicochemical; details: methanol

Solubility (Solubility)	Compound	inhibition at 0.01 µg/mL (mouse T lymphocytes; Mus musculus, T-lymphocyte, 48 h, read-out: inhibition of T-cell proliferation by standard) [%]	potency relative to cyclosporin [1] [times]	IC50 (mouse T lymphocytes; Mus musculus, T-lymphocyte, 48 h, read-out: IC50 (inhibition of T-cell proliferation))	inhibition at 0.00011 µg/mL (mouse T lymphocytes; Mus musculus, T-lymphocyte, L-687,819 0.11 ng/ml, 48 h) [%]	inhibition at 0.00026 µg/mL (mouse T lymphocytes; Mus musculus, T-lymphocyte, L-687,819 0.26 ng/ml, 48 h) [%]	inhibition at 0.00058 µg/mL (mouse T lymphocytes; Mus musculus, T-lymphocyte, L-687,819 0.58 ng/ml, 48 h) [%]	inhibition at 0.0013 µg/mL (mouse T lymphocytes; Mus musculus, T-lymphocyte, L-687,819 1.3 ng/ml, 48 h) [%]	inhibition at 0.0029 µg/mL (mouse T lymphocytes; Mus musculus, T-lymphocyte, L-687,819 2.9 ng/ml, 48 h) [%]	inhibition at 0.0044 µg/mL (mouse T lymphocytes; Mus musculus, T-lymphocyte, L-687,819 4.4 ng/ml, 48 h) [%]	inhibition at 0.0066 µg/mL (mouse T lymphocytes; Mus musculus, T-lymphocyte, L-687,819 6.6 ng/ml, 48 h) [%]	inhibition at 0.01 µg/mL (mouse T lymphocytes; Mus musculus, T-lymphocyte, L-687,819 10 ng/ml, 48 h, read-out: % Inhibition of T-cell proliferation) [%]	inhibition at 0.1 µg/mL (mouse T lymphocytes; Mus musculus, T-lymphocyte, L-687,819 100 ng/ml, 48 h) [%]	Inhibition of proliferation on addition of recombinant human IL2 (mouse T lymphocytes; addition of 50 units/ml recombinant human IL2)	immunosuppressive activity by the T-cell proliferation assay (mouse T lymphocytes)	immunosuppressive activity by the T-cell proliferation assay (mouse T lymphocytes; listed as minor component)
	C=CC[C@@H]1/C=C(\C)C[C@H](C)C[C@H](OC)[C@H]2O[C@@](O)(C(=O)C(=O)N3CCCC[C@H]3C(=O)O[C@H](/C(C)=C/[C@@H]3CC[C@@H](O)[C@H](OC)C3)[C@H](C)[C@@H](O)CC1=O)[C@H](C)C[C@@H]2OC [FK-506, reference compound]	99	100													
Solubility in methanol	CO[C@H]1C[C@@H](C)C/C(C)=C/[C@@H](C)C(=O)C[C@H](O)[C@@H](C)[C@@H](/C(C)=C/[C@@H]2CC[C@@H](O)[C@H](O)C2)OC(=O)[C@@H]2CCCCN2C(=O)C(=O)[C@]2(O)O[C@H]1[C@@H](OC)C[C@H]2C [L-687,819]			0.007 µg/mL and 9.17 nM	9.5	9.1	0	0	0	15.9	51.3	76.1	98.8	reversed	positive immunosuppressive activity; also recorded: positive inhibition of T-cell activation	shown to possess immunosuppressive activity
